In US20190209472A1, “FORMULATIONS FOR DERMAL DELIVERY OF POLYMER CONJUGATES OF INDOLOCARBAZOLE COMPOUNDS WITH REDUCED EXPOSURE” (Sienna Biopharmaceuticals, Inc., priority 2017, published 2019):
Read-outs that look alike come from different tables or passages of the source.

Assays:
[1] = tested on: lesions of psoriasis vulgaris
Description: This was a Phase I, single-center, randomized, double-blind, placebo-controlled study in male and female patients with stable psoriasis vulgaris aged >18 and <71 years. Sixteen patients were enrolled in 2 treatment groups. […] Patients attended a screening visit within 21 days prior to Day 1. Patients were then admitted to the CPU in the afternoon of Day −1 and remained resident in the CPU until the morning of Day 8. Patients attended a follow-up visit 7 to 10 days after the last treatment administration on Day 7.
The ointment was applied by the CPU staff, using a spatula and finger cot.
Physicians Global Assessment (PGA) scores were assessed at screening, Day 1, Day 7 and at follow-up. Digital photographs of the application sites were also taken on admission to the CPU, Day 7 and at follow-up.

[2] = target: TrkA kinase (Homo sapiens, UniProt P04629)
Sequence of TrkA kinase (P04629 33-796): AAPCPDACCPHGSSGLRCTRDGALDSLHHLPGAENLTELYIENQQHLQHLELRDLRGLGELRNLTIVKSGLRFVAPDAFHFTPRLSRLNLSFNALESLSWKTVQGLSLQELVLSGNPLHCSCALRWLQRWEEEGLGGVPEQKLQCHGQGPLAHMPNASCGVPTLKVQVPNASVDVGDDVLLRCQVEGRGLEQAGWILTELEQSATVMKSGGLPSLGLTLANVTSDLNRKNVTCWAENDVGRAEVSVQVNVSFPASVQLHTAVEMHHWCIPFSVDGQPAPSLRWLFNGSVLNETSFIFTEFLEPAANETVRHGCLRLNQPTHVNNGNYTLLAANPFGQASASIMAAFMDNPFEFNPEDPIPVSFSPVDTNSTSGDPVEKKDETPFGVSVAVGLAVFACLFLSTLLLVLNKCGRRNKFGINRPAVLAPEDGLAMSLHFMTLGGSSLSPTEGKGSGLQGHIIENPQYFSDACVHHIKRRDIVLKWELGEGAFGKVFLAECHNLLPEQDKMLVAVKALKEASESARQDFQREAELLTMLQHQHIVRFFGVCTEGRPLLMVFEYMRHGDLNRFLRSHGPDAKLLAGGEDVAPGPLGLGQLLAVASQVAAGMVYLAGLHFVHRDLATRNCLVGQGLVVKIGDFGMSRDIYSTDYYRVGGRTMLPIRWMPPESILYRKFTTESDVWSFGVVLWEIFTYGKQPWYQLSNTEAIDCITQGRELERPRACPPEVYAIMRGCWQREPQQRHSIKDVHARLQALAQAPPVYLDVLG

For “(9S, 10R, 12R)-10-(3′-mPEG2000-1′,3′-oxazolidine-2′,4′-dione)-2,3,9,10,11,12-hexahydro-9-methyl-1-oxo-9,12-epoxy-1H-diindolo[1,2,3-fg:3′,2′,1′-k,l]pyrrolo[3,4-i][1,6] benzodiazocine] [CT327]”, the “PGA Scaling 2: MILD, FINE SCALE DOMINATES, patients (%)” value (from here on “PGA Scaling 2: MILD … (%)”) ([1]; Plaque 2, DAY 1, N = 12) was “(16.7%)”, the “PGA Scaling 3: MODERATE, COARSE SCALE PREDOMINATES, patients (%)” value (from here on “PGA Scaling 3: MODERATE … (%)”) ([1]; Plaque 2, DAY 1, N = 12) was “(8.3%)” and the “PGA Scaling 4: MARKED, THICK, NON-TENACIOUS SCALE DOMINATES, patients (%)” value ([1]; Plaque 2, DAY 1, N = 12) was “(8.3%)”. The “Physician Static Global Score 2: MILD, patients (%)” value ([1]; Plaque 2, DAY 1, N = 12) was “(25.0%)”, the “Physician Static Global Score 3: MODERATE, patients (%)” value ([1]; Plaque 2, DAY 1, N = 12) was “(8.3%)” and the “PGA Erythma 2: LIGHT RED COLOURATION, patients (%)” value ([1]; Plaque 2, DAY 7, N = 12) was “(25.0%)”. The “PGA Erythma 3: MODERATE RED COLOURATION, patients (%)” value ([1]; Plaque 2, DAY 7, N = 12) was “(8.3%)”, the “PGA Induration 1: MINIMAL PLAQUE ELEVATION, =0.25 MM, patients (%)” value ([1]; Plaque 2, DAY 7, N = 12) was “(25.0%)” and the “PGA Induration 2: MILD PLAQUE ELEVATION, =0.5 MM, patients (%)” value ([1]; Plaque 2, DAY 7, N = 12) was “(8.3%)”. The “PGA Scaling 1: MINIMAL, OCCASIONAL FINE SCALE OVER LESS THAN 5% OF THE LESION, patients (%)” value ([1]; Plaque 2, DAY 7, N = 12) was “(16.7%)”, the “PGA Scaling 2: MILD … (%)” value ([1]; Plaque 2, DAY 7, N = 12) was “(16.7%)” and the “Physician Static Global Score 1: MINIMAL, patients (%)” value ([1]; Plaque 2, DAY 7, N = 12) was “(8.3%)”. The “Physician Static Global Score 2: MILD, patients (%)” value ([1]; Plaque 2, DAY 7, N = 12) was “(25.0%)”, the “PGA Erythma 2: LIGHT RED COLOURATION, patients (%)” value ([1]; Plaque 2, FOLLOW-UP, N = 12) was “(33.3%)” and the “PGA Induration 1: MINIMAL PLAQUE ELEVATION, =0.25 MM, patients (%)” value ([1]; Plaque 2, FOLLOW-UP, N = 12) was “(8.3%)”. For the same substance, the “PGA Induration 2: MILD PLAQUE ELEVATION, =0.5 MM, patients (%)” value ([1]; Plaque 2, FOLLOW-UP, N = 12) was “(25.0%)”, the “PGA Scaling 1: MINIMAL, OCCASIONAL FINE SCALE OVER LESS THAN 5% OF THE LESION, patients (%)” value ([1]; Plaque 2, FOLLOW-UP, N = 12) was “(8.3%)” and the “PGA Scaling 2: MILD … (%)” value ([1]; Plaque 2, FOLLOW-UP, N = 12) was “(25.0%)”. For the same substance, the “Physician Static Global Score 2: MILD, patients (%)” value ([1]; Plaque 2, FOLLOW-UP, N = 12) was “(33.3%)”, the “PGA Erythma 2: LIGHT RED COLOURATION, patients (%)” value ([1]; Plaque 2, SCREENING, N = 12) was “(33.3%)” and the “PGA Erythma 3: MODERATE RED COLOURATION, patients (%)” value ([1]; Plaque 2, SCREENING, N = 12) was “(25.0%)”. The “PGA Induration 1: MINIMAL PLAQUE ELEVATION, =0.25 MM, patients (%)” value ([1]; Plaque 2, SCREENING, N = 12) was “(8.3%)”, the “PGA Induration 2: MILD PLAQUE ELEVATION, =0.5 MM, patients (%)” value ([1]; Plaque 2, SCREENING, N = 12) was “(33.3%)” and the “PGA Induration 3: MODERATE PLAQUE ELEVATION, =0.75 MM, patients (%)” value ([1]; Plaque 2, SCREENING, N = 12) was “(8.3%)”. The “PGA Induration 4: MARKED PLAQUE ELEVATION, =1 MM, patients (%)” value ([1]; Plaque 2, SCREENING, N = 12) was “(8.3%)”, the “PGA Scaling 2: MILD … (%)” value ([1]; Plaque 2, SCREENING, N = 12) was “(16.7%)” and the “PGA Scaling 3: MODERATE … (%)” value ([1]; Plaque 2, SCREENING, N = 12) was “(33.3%)”. The “PGA Scaling 4: MARKED, THICK, NON-TENACIOUS SCALE DOMINATES, patients (%)” value ([1]; Plaque 2, SCREENING, N = 12) was “(8.3%)”, the “Physician Static Global Score 2: MILD, patients (%)” value ([1]; Plaque 2, SCREENING, N = 12) was “(33.3%)” and the “Physician Static Global Score 3: MODERATE, patients (%)” value ([1]; Plaque 2, SCREENING, N = 12) was “(16.7%)”. For the same substance, the “Physician Static Global Score 4: MARKED, patients (%)” value ([1]; Plaque 2, SCREENING, N = 12) was “(8.3%)”, the “PGA Erythma 2: LIGHT RED COLOURATION, patients (%)” value ([1]; Plaque 3, DAY 1, N = 12) was “(16.7%)” and the “PGA Induration 2: MILD PLAQUE ELEVATION, =0.5 MM, patients (%)” value ([1]; Plaque 3, DAY 1, N = 12) was “(8.3%)”. For the same substance, the “PGA Induration 3: MODERATE PLAQUE ELEVATION, =0.75 MM, patients (%)” value ([1]; Plaque 3, DAY 1, N = 12) was “(8.3%)”, the “PGA Scaling 2: MILD … (%)” value ([1]; Plaque 3, DAY 1, N = 12) was “(8.3%)” and the “PGA Scaling 4: MARKED, THICK, NON-TENACIOUS SCALE DOMINATES, patients (%)” value ([1]; Plaque 3, DAY 1, N = 12) was “(8.3%)”. The “Physician Static Global Score 2: MILD, patients (%)” value ([1]; Plaque 3, DAY 1, N = 12) was “(8.3%)”, the “Physician Static Global Score 3: MODERATE, patients (%)” value ([1]; Plaque 3, DAY 1, N = 12) was “(8.3%)” and the “PGA Erythma 2: LIGHT RED COLOURATION, patients (%)” value ([1]; Plaque 3, DAY 7, N = 12) was “(8.3%)”. For the same substance, the “PGA Erythma 3: MODERATE RED COLOURATION, patients (%)” value ([1]; Plaque 3, DAY 7, N = 12) was “(8.3%)”, the “PGA Induration 1: MINIMAL PLAQUE ELEVATION, =0.25 MM, patients (%)” value ([1]; Plaque 3, DAY 7, N = 12) was “(16.7%)” and the “PGA Scaling 2: MILD … (%)” value ([1]; Plaque 3, DAY 7, N = 12) was “(16.7%)”. For the same substance, the “Physician Static Global Score 2: MILD, patients (%)” value ([1]; Plaque 3, DAY 7, N = 12) was “(16.7%)”, the “PGA Erythma 2: LIGHT RED COLOURATION, patients (%)” value ([1]; Plaque 3, FOLLOW-UP, N = 12) was “(16.7%)” and the “PGA Induration 1: MINIMAL PLAQUE ELEVATION, =0.25 MM, patients (%)” value ([1]; Plaque 3, FOLLOW-UP, N = 12) was “(8.3%)”. The “PGA Induration 2: MILD PLAQUE ELEVATION, =0.5 MM, patients (%)” value ([1]; Plaque 3, FOLLOW-UP, N = 12) was “(8.3%)”, the “PGA Scaling 2: MILD … (%)” value ([1]; Plaque 3, FOLLOW-UP, N = 12) was “(16.7%)” and the “Physician Static Global Score 2: MILD, patients (%)” value ([1]; Plaque 3, FOLLOW-UP, N = 12) was “(16.7%)”. For the same substance, the “PGA Erythma 2: LIGHT RED COLOURATION, patients (%)” value ([1]; Plaque 3, SCREENING, N = 12) was “(8.3%)”, the “PGA Erythma 3: MODERATE RED COLOURATION, patients (%)” value ([1]; Plaque 3, SCREENING, N = 12) was “(16.7%)” and the “PGA Induration 2: MILD PLAQUE ELEVATION, =0.5 MM, patients (%)” value ([1]; Plaque 3, SCREENING, N = 12) was “(8.3%)”. For the same substance, the “PGA Induration 3: MODERATE PLAQUE ELEVATION, =0.75 MM, patients (%)” value ([1]; Plaque 3, SCREENING, N = 12) was “(8.3%)”, the “PGA Induration 4: MARKED PLAQUE ELEVATION, =1 MM, patients (%)” value ([1]; Plaque 3, SCREENING, N = 12) was “(8.3%)” and the “PGA Scaling 3: MODERATE … (%)” value ([1]; Plaque 3, SCREENING, N = 12) was “(16.7%)”. For the same substance, the “PGA Scaling 4: MARKED, THICK, NON-TENACIOUS SCALE DOMINATES, patients (%)” value ([1]; Plaque 3, SCREENING, N = 12) was “(8.3%)”, the “Physician Static Global Score 2: MILD, patients (%)” value ([1]; Plaque 3, SCREENING, N = 12) was “(8.3%)” and the “Physician Static Global Score 3: MODERATE, patients (%)” value ([1]; Plaque 3, SCREENING, N = 12) was “(8.3%)”. The “Physician Static Global Score 4: MARKED, patients (%)” value ([1]; Plaque 3, SCREENING, N = 12) was “(8.3%)” and the “Inhibition of TrkA kinase” value [2] was “inhibitor of TrkA kinase at nanomolar levels”.
